In PubChem BioAssay AID330 (DTP/NCI, 2004):
Several values for one entry are separate records, joined by “and”; a condition that tells them apart may be missing. Equal values may be shown once. Inconclusive results and toxic doses are left out. How the source made its calls: active means survival T/C of 150% or more; inactive means T/C below 125% in these data. Peptide text beside a SMILES is read from it.

System: P388 leukemia ip, CD2F1 mice, survival T/C
Assay: NCI In Vivo Anticancer Drug Screen. Data for tumor model P388 Leukemia (intraperitoneal) in CD2F1 (CDF1) mice
Settings: endpoint: median survival time, higher = longer survival
Procedure, shortened: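 Mice carrying the transplanted tumor received test compound or vehicle. Survival was recorded in each group, and the value is the treated-group measurement divided by that of the vehicle-treated control group.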

[1] = dose: 50.0 mg/kg/injection, schedule: Q04DX003 (ip), vehicle: saline with Tween-80
[2] = dose: 100.0 mg/kg/injection, schedule: Q04DX003 (ip), vehicle: saline with Tween-80
[3] = dose: 200.0 mg/kg/injection, schedule: Q04DX003 (ip), vehicle: saline with Tween-80
[4] = dose: 12.5 mg/kg/injection, schedule: Q01DX009 (ip), vehicle: saline with Tween-80
[5] = dose: 25.0 mg/kg/injection, schedule: Q01DX009 (ip), vehicle: saline with Tween-80
[6] = dose: 50.0 mg/kg/injection, schedule: Q01DX009 (ip), vehicle: saline with Tween-80
[7] = dose: 50.0 mg/kg/injection, schedule: Q01DX009 (ip), vehicle: Klucel (hydroxypropylcellulose) (HPC)
[8] = dose: 100.0 mg/kg/injection, schedule: Q01DX009 (ip), vehicle: Klucel (hydroxypropylcellulose) (HPC)
[9] = dose: 200.0 mg/kg/injection, schedule: Q01DX009 (ip), vehicle: Klucel (hydroxypropylcellulose) (HPC)
[10] = dose: 100.0 mg/kg/injection, schedule: Q01DX001 (ip), vehicle: saline with Tween-80
[11] = dose: 200.0 mg/kg/injection, schedule: Q01DX001 (ip), vehicle: saline with Tween-80
[12] = dose: 60.0 mg/kg/injection, schedule: Q01DX005 (ip), vehicle: saline with Tween-80
[13] = dose: 120.0 mg/kg/injection, schedule: Q01DX005 (ip), vehicle: saline with Tween-80
[14] = dose: 240.0 mg/kg/injection, schedule: Q01DX005 (ip), vehicle: saline with Tween-80
[15] = dose: 100.0 mg/kg/injection, schedule: Q01DX009 (ip), vehicle: saline with Tween-80
[16] = dose: 200.0 mg/kg/injection, schedule: Q01DX009 (ip), vehicle: saline with Tween-80
[17] = dose: 50.0 mg/kg/injection, schedule: Q01DX001 (ip), vehicle: saline with Tween-80
[18] = dose: 50.0 mg/kg/injection, schedule: Q01DX005 (ip), vehicle: Klucel (hydroxypropylcellulose) (HPC)

Measured: T/C

CC(C)(C#CC(C)(C)OC(=O)Nc1ccccc1)OC(=O)Nc1ccccc1
inactive: dose: 100.0 mg/kg/injection, schedule: Q01DX009 (ip), vehicle: suspension in saline 95 % of control | dose: 200.0 mg/kg/injection, schedule: Q01DX009 (ip), vehicle: suspension in saline 97 % of control | dose: 400.0 mg/kg/injection, schedule: Q01DX009 (ip), vehicle: suspension in saline 107 % of control

O=C1C2=C(C(=O)C3=C1C1C=CC3C1)C1C=CC2C1
inactive: dose: 100.0 mg/kg/injection, schedule: Q04DX003 (ip), vehicle: Klucel (hydroxypropylcellulose) (HPC) 118 % of control | dose: 200.0 mg/kg/injection, schedule: Q04DX003 (ip), vehicle: Klucel (hydroxypropylcellulose) (HPC) 102 % of control | dose: 400.0 mg/kg/injection, schedule: Q04DX003 (ip), vehicle: Klucel (hydroxypropylcellulose) (HPC) 96 % of control

Cc1ccc(C(=Nc2ccccc2)N=S(c2ccccc2)c2ccccc2)cc1
inactive: [1] 97 % of control | [2] 92 % of control | [3] 97 % of control

CCC1=C2C(=O)c3ccccc3C2=C(C)S(=O)(=O)O1
inactive: [1] 109 % of control | [2] 86 % of control

Fc1ccc(OCCC(Cn2ccnc2)c2ccc(Cl)cc2Cl)cc1 (stereo unspecified)
inactive: [4] 106 % of control | [5] 106 % of control | [6] 88 % of control and 94 % of control

CS(=O)(=O)OCC(COS(C)(=O)=O)(COS(C)(=O)=O)COS(C)(=O)=O
inactive: [7] 93 % of control | [8] 99 % of control | [9] 94 % of control

O=C(N/N=C/c1cc(Cl)cc(Cl)c1[O-])c1ccccc1.O=C(N/N=C/c1cc(Cl)cc(Cl)c1[O-])c1ccccc1.[Mn+2]
inactive: [10] 98 % of control | [11] 99 % of control | dose: 400.0 mg/kg/injection, schedule: Q01DX001 (ip), vehicle: saline with Tween-80 105 % of control

CCN(CC)Cc1c(C)[nH]c2c(ccc3c2ccc2c(=O)c(CN(CC)CC)c(C)[nH]c23)c1=O
inactive: [7] 93 % of control | [8] 91 % of control | [9] 96 % of control

Clc1ccc(C(Nc2nncs2)Nc2nncs2)cc1Cl
inactive: dose: 60.0 mg/kg/injection, schedule: Q01DX005 (ip), vehicle: Klucel (hydroxypropylcellulose) (HPC) 94 % of control | dose: 120.0 mg/kg/injection, schedule: Q01DX005 (ip), vehicle: Klucel (hydroxypropylcellulose) (HPC) 96 % of control | dose: 240.0 mg/kg/injection, schedule: Q01DX005 (ip), vehicle: Klucel (hydroxypropylcellulose) (HPC) 102 % of control

O=C1c2ccccc2C(=O)c2cc3c(cc21)C1OC3C2=C1CC1C(=O)OC(=O)C1C2 (stereo unspecified)
inactive: dose: 50.0 mg/kg/injection, schedule: Q01DX005 (ip), vehicle: saline with Tween-80 111 % of control | dose: 100.0 mg/kg/injection, schedule: Q01DX005 (ip), vehicle: saline with Tween-80 93 % of control | dose: 200.0 mg/kg/injection, schedule: Q01DX005 (ip), vehicle: saline with Tween-80 94 % of control

COc1ccc(C(C)c2cc(OC)c(OC)cc2OC)cc1 (stereo unspecified)
inactive: [12] 102 % of control | [13] 102 % of control | [14] 105 % of control

COC(=O)CCC1=C(OC)C(=O)C(OC)=CC1=O
inactive: [6] 112 % of control | [15] 100 % of control

NC(Cc1ccccc1[N+](=O)[O-])C(=O)O (stereo unspecified)
inactive: [6] 92 % of control | [15] 93 % of control | [16] 91 % of control

O=C1C(CO)NC(=S)N1c1ccccc1 (stereo unspecified)
inactive: dose: 12.5 mg/kg/injection, schedule: Q01DX001 (ip), vehicle: saline with Tween-80 109 % of control | dose: 25.0 mg/kg/injection, schedule: Q01DX001 (ip), vehicle: saline with Tween-80 102 % of control | [17] 97 % of control | [10] 105 % of control | [11] 102 % of control

CN(C)CCNC1=C(Cl)C(=O)c2ccccc2C1=O
inactive: dose: 3.13 mg/kg/injection, schedule: Q01DX009 (ip), vehicle: saline 95 % of control | dose: 6.25 mg/kg/injection, schedule: Q01DX009 (ip), vehicle: saline 94 % of control | dose: 12.5 mg/kg/injection, schedule: Q01DX009 (ip), vehicle: saline 97 % of control

CCSc1ncnc2c1ncn2C1OC(CO)C(O)C1O (stereo unspecified)
inactive: [2] 104 % of control | [3] 109 % of control

Cc1[nH]ccc(=O)c1OC(=O)C12CC3CC(CC(C3)C1)C2
inactive: [18] 94 % of control and 98 % of control | dose: 100.0 mg/kg/injection, schedule: Q01DX005 (ip), vehicle: Klucel (hydroxypropylcellulose) (HPC) 91 % of control and 97 % of control | dose: 200.0 mg/kg/injection, schedule: Q01DX005 (ip), vehicle: Klucel (hydroxypropylcellulose) (HPC) 101 % of control and 95 % of control | dose: 400.0 mg/kg/injection, schedule: Q01DX005 (ip), vehicle: Klucel (hydroxypropylcellulose) (HPC) 103 % of control and 98 % of control

c1ccc(-c2nc3cnccc3o2)cc1
inactive: dose: 6.25 mg/kg/injection, schedule: Q01DX009 (ip), vehicle: Klucel (hydroxypropylcellulose) (HPC) 103 % of control | dose: 12.5 mg/kg/injection, schedule: Q01DX009 (ip), vehicle: Klucel (hydroxypropylcellulose) (HPC) 105 % of control | dose: 25.0 mg/kg/injection, schedule: Q01DX009 (ip), vehicle: Klucel (hydroxypropylcellulose) (HPC) 114 % of control | [7] 112 % of control

CCCCCCCCCC(=O)C(=O)c1ccc(O)cc1O
inactive: [7] 94 % of control | [8] 93 % of control | [9] 94 % of control

COC1/C=C/OC2(C)Oc3c(C)c(O)c4c(O)c(c(/C=N/N5CC(C)N(Cc6ccccc6)C(C)C5)c(O)c4c3C2=O)NC(=O)C(C)=C/C=C/C(C)C(O)C(C)C(O)C(C)C(OC(C)=O)C1C (stereo unspecified)
inactive: [4] 113 % of control | [5] 109 % of control | [6] 118 % of control and 124 % of control | [15] 114 % of control

C[S+](C)CC[N+](C)(C)C
inactive: dose: 12.5 mg/kg/injection, schedule: Q01DX009 (ip), vehicle: water 104 % of control | dose: 25.0 mg/kg/injection, schedule: Q01DX009 (ip), vehicle: water 108 % of control | dose: 50.0 mg/kg/injection, schedule: Q01DX009 (ip), vehicle: water 110 % of control

CC(=O)N/C(=C\c1ccc(Cl)cc1)C(=O)c1ccc(C)cc1
inactive: [17] 99 % of control | [10] 97 % of control | [11] 97 % of control

O=C(OCC1OC(n2cc(C(F)(F)F)c(=O)[nH]c2=O)CC1O)c1ccc([N+](=O)[O-])cc1 (stereo unspecified)
inactive: dose: 6.25 mg/kg/injection, schedule: Q01DX005 (ip), vehicle: Klucel (hydroxypropylcellulose) (HPC) 110 % of control | dose: 12.5 mg/kg/injection, schedule: Q01DX005 (ip), vehicle: Klucel (hydroxypropylcellulose) (HPC) 110 % of control | dose: 25.0 mg/kg/injection, schedule: Q01DX005 (ip), vehicle: Klucel (hydroxypropylcellulose) (HPC) 115 % of control
active: [18] 161 % of control

CC(C)C(N)C(=O)NCC(=O)NC(CO)C(=O)NC(CCC(=O)O)C(=O)O (stereo unspecified) (H-VGSE-OH; configuration not given here)
inactive: dose: 10.0 mg/kg/injection, schedule: Q01DX005 (ip), vehicle: water 100 % of control | dose: 20.0 mg/kg/injection, schedule: Q01DX005 (ip), vehicle: water 102 % of control | dose: 40.0 mg/kg/injection, schedule: Q01DX005 (ip), vehicle: water 100 % of control | dose: 80.0 mg/kg/injection, schedule: Q01DX005 (ip), vehicle: water 97 % of control | dose: 160.0 mg/kg/injection, schedule: Q01DX005 (ip), vehicle: water 104 % of control

OCCN1CCN(CCCN2c3ccccc3Sc3ccc(C(F)(F)F)cc32)CC1
inactive: dose: 7.5 mg/kg/injection, schedule: Q04DX003 (ip), vehicle: saline 111 % of control | dose: 15.0 mg/kg/injection, schedule: Q04DX003 (ip), vehicle: saline 120 % of control | dose: 60.0 mg/kg/injection, schedule: Q04DX003 (ip), vehicle: saline 123 % of control

CCCCCCCCCOCC(=O)OC
inactive: [6] 105 % of control | [15] 106 % of control | [16] 101 % of control

CSCC(NP1(=O)SC(NN=C2CCCCC2)=NC1(C)C)C(=O)O (stereo unspecified)
inactive: [12] 100 % of control | [13] 100 % of control | [14] 100 % of control
